“Also recorded” adds a separate entry of the source. Where two headings read alike, the source gives them in different places. Values belong to the molecule of their own block, whether it stands above or below them.
What was measured:
lymph node T cells = test: Proliferation of anti-CD3 activated lymph node T cells; type: cell-based, BALB/c mouse; details: anti-CD3
From the text: Growth curves of lymph node T cells depleted of antigen-presenting cells (FIG. 17A) with and without 10^-6 M retinol at 2×10^5 and 5×10^4 cells/well. (FIG. 17B) Dose-responses elicited by different retinoids in cultures of lymph node T cells depleted of antigen-presenting cells. Also shown are the growth curves of CD4^+ (FIG. 17C) and CD8^+ T lymphocytes (FIG. 17D) in the presence of either retinol, 14HRR, human serum or in their absence.
T lymphocytes, purified as described, 5×10^4 well, were activated with immobilized anti-CD3 antibody in ITLB medium. The indicated amounts of retinoids or human serum were added at initiation of cultures. […] 14HRR was added every 12 hours. DNA synthesis was measured by a 4 hour pulse with tritiated thymidine. SDs were ≤17%.
Mature T cells were obtained from pooled intestinal, axillary, inguinal and submandibular lymph nodes of 4 to 10-week-old BALB/c mice. To fractionate cells into CD4 and CD8 subsets and at the same time remove APC, a combination of adherence and complement lysis was used as follows:
Cells were cultured in serum-free medium, referred to as ITLB, containing RPMI 1640 supplemented with 8×10^-7 M insulin (5 μg/ml), 7×10^-8 M transferrin (5 μg/ml), 2×10^-6 M linoleic acid, 2×10^-6 M delipidated BSA (0.12 mg/ml), 2 mM L-glutamine, 1 mM sodium pyruvate and antibiotics. They were seeded into 96-well flat-bottom plates at varying cellular densities in a final volume of 100 μl. In control experiments, cells were cultured in medium containing 10% FCS or 3% human serum and 5×10^-5 M 2 ME. T cells and thymocytes were activated with immobilized, purified anti-mab CD3e or by the addition of Con A in the presence or absence of different concentrations of retinoids. Unless indicated otherwise, retinoids were replenished every 12 hours to maintain a reasonably constant concentration of these labile compounds in culture. The optimal concentration for stimulation of T cells was determined for each batch of anti-CD3 mAb and Con A. The optimal range of Con A was particularly narrow in serum-free medium (0.5-0.2 μg/ml) and varied with the cell density used. […] Cultures were carried out in duplicate. Plates were incubated at 37° C. in a humidified 5% CO2 atmosphere. Cellular proliferation was determined by [^3 H] thymidine uptake (0.5 uCi/well; New England Nuclear, Boston, Mass.) after the incubation times indicated for each experiment with a 4 hour labeling pulse. Cells were harvested onto glass filter and [^3 H]TdR incorporation was determined by liquid scintillation counting. The data presented are the means of duplicate or six replicate cultures. The restriction to duplicate measurements was necessary to conserve scarce 14HRR. They were within 20% of each other. Each experiment was repeated at least twice.

blast cells (thymocytes) = test: Flow cytometry phenotype of blast cells from activated thymocyte cultures; type: cell-based, BALB/c mouse; details: retinol- and 14HRR-supported cultures, data not shown
Experimental: To determine the phenotype of blast cells generated in the thymocyte cultures stimulated with immobilized anti-CD3 antibody and retinoids as well as the purity of CD4 and CD8 subsets isolated from pooled mouse lymph nodes, cells (10^5 -10^6 cells/sample), stained with FITC-conjugated anti-CD4 antibody and PE-conjugated anti-CD8 antibody, were analyzed by two-color flow cytometry with a FACScan. Dead cells were eliminated by forward low-angle scatter. Isotope controls were included in all experiments. To determine the phenotypes of activated thymocytes only blast cells were gated for collection and analysis.

[1] = Chemical stability during extraction; type: physicochemical
5/2 lymphoblastoid cells = type: in vitro ADME, human
Experimental: FIG. 24. Kinetics of biosynthesis of 14HRR in lymphoblastoid cells. 50 ml ITLB 600,000 5/2 cells/ml were incubated with 20 μCi of ^3 H retinol in serum-free ITLB medium. Cell pellets corresponding to 10 ml of culture were delipidated at 20 minute intervals and the corresponding lipid fraction separated on an analytical C18 reversed-phase column (see FIG. 20). Radioactive peaks were identified by coelution with cold reference retinoids.
The kinetics of biosynthesis of 13,14DHR and 14HRR were determined in 5/2 lymphoblastoid cells. These cells were cultured in the presence of ^3 H retinol for different time periods, and the cell-associated retinoids extracted as referenced above. They were then chromatographed on an analytical C18 column as described in FIG. 20. The sizes of peaks emerging at 16.8 minutes, representing 13,14DHR, and 18.5 minutes, representing 14HRR, were measured and plotted in the bar diagram of FIG. 24.

26 mammalian cells = test: 14HRR production from 3H retinol in mammalian cell lines; type: in vitro ADME; details: 3H retinol bound to fetal calf serum
From the text: The use of ^3 H retinol bound to fetal calf serum was used as an assay to test for P3 in other cell lines.
The use of ^3 H retinol bound to fetal calf serum was used as an assay to test for 14HRR in other cell lines.

EL-4 = test: Retinol metabolism; type: in vitro ADME, mouse
Experimental: (§1) FBS. The FBS was preincubated at room temperature with 14.4 uCi [^3 H
(§2) retinol (NEN) for 4 h. The cell pellet was washed twice with PBS. The
(§3) retinoid were extracted according to MClean et al. 90 and separated on an
(§4) analytical c18 reverse phase column according to FIG. 7. The DPM wer
(§5) determined using an online scintillation counter.

P388D.1 = test: Retinol metabolism; type: in vitro ADME, mouse
Experimental: as §1, §2, §3, §4, §5

SLA = test: Retinol metabolism; type: in vitro ADME, mouse
Experimental: as §1, §2, §3, §4, §5

[2] = cited from earlier work
thymocytes = test: Growth-stimulating effect of retinol on anti-CD3 activated thymocytes in the presence of interleukins; type: cell-based, BALB/c mouse; details: 3 days

stability in chloroform ([1]; chloroform): unstable in chloroform
Compound: CC(C=CC=C(C)C(O)CO)=CC=C1C(C)=CCCC1(C)C (stereo not shown) [14HRR, 14-hydroxy-4,14-retro-retinol]
stimulation of lymph node T cells (lymph node T cells): effective over the same dose range as observed for thymocytes | CD4+ cells among blast cells (blast cells (thymocytes)): ~70% | CD8+ cells among blast cells (blast cells (thymocytes)): ~30% | stability to acid extraction ([1]; acid extraction step): does not survive an acid extraction step

Total cts. (EL-4; EL-4): 2.8 × 10^5 cts. | Ester (% of taken up retinol) (EL-4; EL-4, overnight): 44% | P3 (% of taken up retinol) (EL-4; EL-4, overnight): 5% | Retinol (% of taken up retinol) (EL-4; EL-4, overnight): 40% | Total cts. (P388D.1; P388D.1): 1.4 × 10^5 cts. | Ester (% of taken up retinol) (P388D.1; P388D.1, overnight): 26% | P3 (% of taken up retinol) (P388D.1; P388D.1, overnight): 0.5% | Retinol (% of taken up retinol) (P388D.1; P388D.1, overnight): 71% | Total cts. (SLA): 6.1 × 10^5 cts. | Ester (% of taken up retinol) (SLA; overnight): 9% | P3 (% of taken up retinol) (SLA; overnight): 3% | Retinol (% of taken up retinol) (SLA; overnight): 85%
Compound: CC1=C(/C=C/C(C)=C/C=C/C(C)=C/CO)C(C)(C)CCC1 [retinol, all-trans retinol]
stimulation of lymph node T cells (lymph node T cells): dependent on the presence of retinol | CD4+ cells among blast cells (blast cells (thymocytes)): ~70% | CD8+ cells among blast cells (blast cells (thymocytes)): ~30% | order of metabolite production (5/2 lymphoblastoid cells): production of 13,14DHR precedes that of 14HRR | radioactivity peak at 14HRR (P3) position (26 mammalian cells): radioactivity peak at the position where 14HRR normally elutes; also recorded: radioactivity peak at the position where P3 normally elutes | half-life ([2]; cell culture, serum-free medium (32)): < 24 h | half-life ([2]; serum-free tissue culture medium (32)): ~24 h | CPM anti-CD3, 10^-6 M Retinol (thymocytes): 79,247 ± 17,567 CPM
